According to PubChem BioAssay AID330 (DTP/NCI, 2004):
Where “and” joins values, the source holds several entries; their conditions need not be identical. Equal entries are not always repeated. Toxic doses and inconclusive results are not listed. Peptide text beside a SMILES is read from it.

Tested on: P388 leukemia ip, CD2F1 mice, survival T/C
Assay: NCI In Vivo Anticancer Drug Screen. Data for tumor model P388 Leukemia (intraperitoneal) in CD2F1 (CDF1) mice
Settings: endpoint: median survival time, higher = longer survival
Outline: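 Mice carrying the transplanted tumor received test compound or vehicle. Survival was recorded in each group, and the value is the treated-group measurement divided by that of the vehicle-treated control group.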

[1] = dose: 15.0 mg/kg/injection, schedule: Q01DX005 (ip), vehicle: saline with Tween-80
[2] = dose: 30.0 mg/kg/injection, schedule: Q01DX005 (ip), vehicle: saline with Tween-80
[3] = dose: 60.0 mg/kg/injection, schedule: Q01DX005 (ip), vehicle: saline with Tween-80
[4] = dose: 12.5 mg/kg/injection, schedule: Q01DX009 (ip), vehicle: saline with Tween-80
[5] = dose: 25.0 mg/kg/injection, schedule: Q01DX009 (ip), vehicle: saline with Tween-80
[6] = dose: 50.0 mg/kg/injection, schedule: Q01DX009 (ip), vehicle: saline with Tween-80
[7] = dose: 100.0 mg/kg/injection, schedule: Q01DX009 (ip), vehicle: saline with Tween-80
[8] = dose: 200.0 mg/kg/injection, schedule: Q01DX009 (ip), vehicle: saline with Tween-80
[9] = dose: 60.0 mg/kg/injection, schedule: Q01DX005 (ip), vehicle: saline
[10] = dose: 120.0 mg/kg/injection, schedule: Q01DX005 (ip), vehicle: saline
[11] = dose: 240.0 mg/kg/injection, schedule: Q01DX005 (ip), vehicle: saline
[12] = dose: 50.0 mg/kg/injection, schedule: Q01DX005 (ip), vehicle: saline with Tween-80
[13] = dose: 100.0 mg/kg/injection, schedule: Q01DX005 (ip), vehicle: saline with Tween-80
[14] = dose: 200.0 mg/kg/injection, schedule: Q01DX005 (ip), vehicle: saline with Tween-80
[15] = dose: 50.0 mg/kg/injection, schedule: Q01DX009 (ip), vehicle: saline
[16] = dose: 100.0 mg/kg/injection, schedule: Q01DX009 (ip), vehicle: saline
[17] = dose: 200.0 mg/kg/injection, schedule: Q01DX009 (ip), vehicle: saline
[18] = dose: 100.0 mg/kg/injection, schedule: Q01DX001 (ip), vehicle: saline with Tween-80
[19] = dose: 200.0 mg/kg/injection, schedule: Q01DX001 (ip), vehicle: saline with Tween-80
[20] = dose: 400.0 mg/kg/injection, schedule: Q01DX001 (ip), vehicle: saline with Tween-80
[21] = dose: 240.0 mg/kg/injection, schedule: Q01DX005 (ip), vehicle: Klucel (hydroxypropylcellulose) (HPC)
[22] = dose: 12.5 mg/kg/injection, schedule: Q04DX003 (ip), vehicle: saline

CN(C)Cc1ccc(C(C)(C)C)cc1Br
T/C (dose: 12.5 mg/kg/injection, schedule: Q01DX009 (ip), vehicle: water): 97 % of control | T/C (dose: 25.0 mg/kg/injection, schedule: Q01DX009 (ip), vehicle: water): 95 % of control | T/C (dose: 50.0 mg/kg/injection, schedule: Q01DX009 (ip), vehicle: water): 99 % of control | T/C (dose: 100.0 mg/kg/injection, schedule: Q01DX009 (ip), vehicle: water): 95 % of control | T/C (dose: 200.0 mg/kg/injection, schedule: Q01DX009 (ip), vehicle: water): 89 % of control

C[Si](CNCCN)(c1ccccc1)c1ccccc1
T/C [1]: 103 % of control | T/C [2]: 102 % of control | T/C [3]: 96 % of control and 97 % of control

COc1cc(C2C(C(C)=O)=C(C)Oc3cc4c(cc32)OCO4)cc(OC)c1O (stereo not drawn)
T/C [1]: 91 % of control | T/C [2]: 91 % of control | T/C [3]: 86 % of control and 90 % of control

CNC(=O)OCc1c(COC(=O)NC)c(-c2ccc([N+](=O)[O-])cc2)n(C)c1C
T/C (dose: 6.25 mg/kg/injection, schedule: Q01DX009 (ip), vehicle: distilled water + Tween-80): 151 % of control and 153 % of control | T/C (dose: 12.5 mg/kg/injection, schedule: Q01DX009 (ip), vehicle: distilled water + Tween-80): 159 % of control and 169 % of control

CC1=C[P+](c2ccccc2)(c2ccccc2)c2ccccc2O1
T/C (dose: 1.56 mg/kg/injection, schedule: Q01DX005 (ip), vehicle: Klucel (hydroxypropylcellulose) (HPC)): 96 % of control | T/C (dose: 3.12 mg/kg/injection, schedule: Q01DX005 (ip), vehicle: Klucel (hydroxypropylcellulose) (HPC)): 109 % of control | T/C (dose: 6.25 mg/kg/injection, schedule: Q01DX005 (ip), vehicle: Klucel (hydroxypropylcellulose) (HPC)): 110 % of control

O=c1[nH]c(C(Br)(Br)Br)nc2ccccc12
T/C (dose: 12.5 mg/kg/injection, schedule: Q01DX009 (ip), vehicle: Klucel (hydroxypropylcellulose) (HPC)): 99 % of control | T/C (dose: 25.0 mg/kg/injection, schedule: Q01DX009 (ip), vehicle: Klucel (hydroxypropylcellulose) (HPC)): 112 % of control | T/C (dose: 50.0 mg/kg/injection, schedule: Q01DX009 (ip), vehicle: Klucel (hydroxypropylcellulose) (HPC)): 113 % of control | T/C (dose: 100.0 mg/kg/injection, schedule: Q01DX009 (ip), vehicle: Klucel (hydroxypropylcellulose) (HPC)): 117 % of control

CCN(CC)CCCC(C)Nc1ccnc2cc(N(C)C)ccc12 (stereo not drawn)
T/C (dose: 6.25 mg/kg/injection, schedule: Q01DX009 (ip), vehicle: saline with Tween-80): 93 % of control | T/C [4]: 109 % of control | T/C [5]: 111 % of control

S=C(Nc1ccccc1)Nc1nccs1
T/C [6]: 108 % of control | T/C [7]: 107 % of control | T/C [8]: 117 % of control

N[C@H]1CCC[C@@H](O)C1O (stereo partly drawn)
T/C [9]: 103 % of control | T/C [10]: 100 % of control | T/C [11]: 109 % of control

O=C1NC(=O)C2C3C=CC(C12)C1C2CCOC2C31 (stereo not drawn)
T/C [12]: 104 % of control | T/C [13]: 100 % of control | T/C [14]: 99 % of control

NCCSCC(N)C(=O)O (stereo not drawn)
T/C (dose: 25.0 mg/kg/injection, schedule: Q01DX009 (ip), vehicle: saline): 102 % of control | T/C [15]: 103 % of control | T/C [16]: 99 % of control | T/C [17]: 109 % of control

CC(/C=C/c1ccc(Cl)c(Cl)c1)=N\NC(N)=S
T/C [3]: 121 % of control

CC(C)(C)SC(=S)SCC(=O)c1cc2ccccc2o1
T/C [12]: 100 % of control | T/C [13]: 93 % of control | T/C [14]: 93 % of control

N#CN=C(N)N=P(c1ccccc1)(c1ccccc1)c1ccccc1
T/C (dose: 100.0 mg/kg/injection, schedule: Q01DX001 (ip), vehicle: Klucel (hydroxypropylcellulose) (HPC)): 97 % of control | T/C (dose: 200.0 mg/kg/injection, schedule: Q01DX001 (ip), vehicle: Klucel (hydroxypropylcellulose) (HPC)): 100 % of control | T/C (dose: 400.0 mg/kg/injection, schedule: Q01DX001 (ip), vehicle: Klucel (hydroxypropylcellulose) (HPC)): 91 % of control

COc1c2occc2c(S(=O)(=O)Cl)c2ccc(=O)oc12
T/C [18]: 95 % of control | T/C [19]: 109 % of control | T/C [20]: 100 % of control

CCC(C)C(N)C(=O)NC(C(=O)O)C(C)C (stereo not drawn) (H-Ile-Val-OH; configuration not given here)
T/C [9]: 95 % of control | T/C [10]: 103 % of control | T/C [11]: 95 % of control

CC(C)N1C(Nc2ccccn2)C(C)(C)C(C)(C)C1Nc1ccccn1 (stereo not drawn)
T/C (dose: 30.0 mg/kg/injection, schedule: Q01DX005 (ip), vehicle: Klucel (hydroxypropylcellulose) (HPC)): 121 % of control | T/C [21]: 151 % of control and 164 % of control

CN(C)/C(=N\O)c1ccccc1
T/C (dose: 3.12 mg/kg/injection, schedule: Q04DX003 (ip), vehicle: saline): 100 % of control and 105 % of control | T/C (dose: 6.25 mg/kg/injection, schedule: Q04DX003 (ip), vehicle: saline): 100 % of control and 90 % of control | T/C [22]: 100 % of control and 95 % of control

Nc1ncnc2nc(Cl)[nH]c12
T/C (dose: 50.0 mg/kg/injection, schedule: Q01DX005 (ip), vehicle: Klucel (hydroxypropylcellulose) (HPC)): 91 % of control | T/C (dose: 100.0 mg/kg/injection, schedule: Q01DX005 (ip), vehicle: Klucel (hydroxypropylcellulose) (HPC)): 93 % of control | T/C (dose: 200.0 mg/kg/injection, schedule: Q01DX005 (ip), vehicle: Klucel (hydroxypropylcellulose) (HPC)): 93 % of control

O=C(CCCBr)c1ccccc1
T/C [5]: 107 % of control | T/C [6]: 100 % of control | T/C [7]: 107 % of control | T/C [8]: 100 % of control

CC(C)C[CH2][Ge]([CH2]CC(C)C)([CH2]CC(C)C)[CH2]CC(C)C
T/C [18]: 100 % of control | T/C [19]: 94 % of control | T/C [20]: 96 % of control

Cc1ccc(SSC(=S)Nc2ccccc2)cc1
T/C [4]: 93 % of control | T/C [5]: 90 % of control | T/C [6]: 100 % of control and 114 % of control | T/C [7]: 114 % of control

CCOc1c(N=Nc2ccc(OC)cc2)c(-c2ccccc2)nn1C(=S)S
T/C [12]: 102 % of control | T/C [13]: 103 % of control | T/C [14]: 102 % of control

N/N=C(/N)C1=NOCC1
T/C (dose: 100.0 mg/kg/injection, schedule: Q04DX002 (ip), vehicle: saline): 114 % of control | T/C (dose: 200.0 mg/kg/injection, schedule: Q04DX002 (ip), vehicle: saline): 106 % of control

CCOC(=O)CON1C(=O)CCC1=O
T/C (dose: 25.0 mg/kg/injection, schedule: Q01DX005 (ip), vehicle: saline): 102 % of control | T/C (dose: 50.0 mg/kg/injection, schedule: Q01DX005 (ip), vehicle: saline): 102 % of control | T/C (dose: 100.0 mg/kg/injection, schedule: Q01DX005 (ip), vehicle: saline): 100 % of control | T/C (dose: 200.0 mg/kg/injection, schedule: Q01DX005 (ip), vehicle: saline): 105 % of control

CCCCCCC[CH2][Sn]([F])([F])[CH2]CCCCCCC
T/C [22]: 102 % of control | T/C (dose: 25.0 mg/kg/injection, schedule: Q04DX003 (ip), vehicle: saline): 106 % of control and 108 % of control | T/C (dose: 50.0 mg/kg/injection, schedule: Q04DX003 (ip), vehicle: saline): 106 % of control and 116 % of control | T/C (dose: 100.0 mg/kg/injection, schedule: Q04DX003 (ip), vehicle: saline): 101 % of control and 109 % of control and 121 % of control

[Mn+2].[O-]c1cc(Br)ccc1/C=N/Nc1ccccn1.[O-]c1cc(Br)ccc1/C=N/Nc1ccccn1
T/C [13]: 87 % of control | T/C [14]: 91 % of control | T/C (dose: 400.0 mg/kg/injection, schedule: Q01DX005 (ip), vehicle: saline with Tween-80): 100 % of control

CCC(=O)CC1(C(=O)OC)NC(=S)NC(=O)C1C#N (stereo not drawn)
T/C (dose: 60.0 mg/kg/injection, schedule: Q01DX005 (ip), vehicle: Klucel (hydroxypropylcellulose) (HPC)): 102 % of control | T/C (dose: 120.0 mg/kg/injection, schedule: Q01DX005 (ip), vehicle: Klucel (hydroxypropylcellulose) (HPC)): 103 % of control | T/C [21]: 100 % of control

COc1cc2c(cc1OC)-c1[nH]ncc1CC2
T/C [6]: 101 % of control | T/C [7]: 101 % of control | T/C [8]: 106 % of control

CCCCC(NC(=O)CCl)C(=O)O (stereo not drawn)
T/C [15]: 98 % of control | T/C [16]: 95 % of control | T/C [17]: 98 % of control
